What all share (type): biochemical
The target of one assay is Tyk2 (Homo sapiens (Human), UniProt P29597). The assay can be described thus: Enzyme assay (Assay Example^a 1), Tyk2. The following applies: ATP 100 μM.
Another assay has as its target JAK1 (Homo sapiens (Human), UniProt P23458). The assay can be described thus: Enzyme assay (Assay Example^a 1), JAK1. The following applies: ATP 100 μM.
Another assay has as its target JAK2 (Homo sapiens (Human), UniProt O60674). The assay can be described thus: Enzyme assay (Assay Example^a 1), JAK2.
Another assay has as its target JAK3 (Homo sapiens (Human), UniProt P52333). The assay can be described thus: Enzyme assay (Assay Example^a 1), JAK3.

As a reminder, the IC50 is the midpoint of a concentration-inhibition curve. Lower therefore signals inhibition by little substance.

Where two headings read alike, the source gives them in different places.

Tyk2, sequence (P29597 whole entry): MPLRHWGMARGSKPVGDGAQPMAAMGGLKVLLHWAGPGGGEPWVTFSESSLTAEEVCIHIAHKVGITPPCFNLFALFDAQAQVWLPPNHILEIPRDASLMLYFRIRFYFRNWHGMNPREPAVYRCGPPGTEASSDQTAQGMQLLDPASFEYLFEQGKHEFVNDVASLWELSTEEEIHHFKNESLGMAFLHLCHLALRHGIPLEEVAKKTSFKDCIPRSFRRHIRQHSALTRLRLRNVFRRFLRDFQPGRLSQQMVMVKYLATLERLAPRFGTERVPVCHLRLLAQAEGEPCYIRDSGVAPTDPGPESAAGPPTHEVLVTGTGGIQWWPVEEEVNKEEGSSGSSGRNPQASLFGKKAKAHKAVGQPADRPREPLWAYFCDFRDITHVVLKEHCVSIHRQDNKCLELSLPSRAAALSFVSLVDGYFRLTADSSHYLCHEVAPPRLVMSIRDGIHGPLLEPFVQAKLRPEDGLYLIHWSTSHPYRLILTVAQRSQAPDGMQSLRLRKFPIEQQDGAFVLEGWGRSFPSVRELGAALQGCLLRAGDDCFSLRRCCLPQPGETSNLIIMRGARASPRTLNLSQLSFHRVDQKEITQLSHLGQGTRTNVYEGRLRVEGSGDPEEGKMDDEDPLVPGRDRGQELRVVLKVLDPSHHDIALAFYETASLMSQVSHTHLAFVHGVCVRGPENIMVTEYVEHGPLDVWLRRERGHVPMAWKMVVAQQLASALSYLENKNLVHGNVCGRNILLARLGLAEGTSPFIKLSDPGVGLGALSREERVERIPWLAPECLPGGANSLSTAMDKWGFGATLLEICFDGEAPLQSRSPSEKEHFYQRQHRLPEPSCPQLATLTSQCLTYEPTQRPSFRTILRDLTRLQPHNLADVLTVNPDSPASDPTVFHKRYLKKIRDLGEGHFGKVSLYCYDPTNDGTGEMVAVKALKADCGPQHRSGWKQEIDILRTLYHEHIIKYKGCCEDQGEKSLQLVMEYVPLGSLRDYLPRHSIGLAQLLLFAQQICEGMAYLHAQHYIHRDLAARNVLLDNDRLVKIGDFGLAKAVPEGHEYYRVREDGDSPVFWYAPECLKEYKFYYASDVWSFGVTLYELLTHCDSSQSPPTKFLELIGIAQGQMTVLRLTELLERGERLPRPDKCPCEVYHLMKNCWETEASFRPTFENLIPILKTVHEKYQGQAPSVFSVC
JAK3, sequence (P52333 whole entry): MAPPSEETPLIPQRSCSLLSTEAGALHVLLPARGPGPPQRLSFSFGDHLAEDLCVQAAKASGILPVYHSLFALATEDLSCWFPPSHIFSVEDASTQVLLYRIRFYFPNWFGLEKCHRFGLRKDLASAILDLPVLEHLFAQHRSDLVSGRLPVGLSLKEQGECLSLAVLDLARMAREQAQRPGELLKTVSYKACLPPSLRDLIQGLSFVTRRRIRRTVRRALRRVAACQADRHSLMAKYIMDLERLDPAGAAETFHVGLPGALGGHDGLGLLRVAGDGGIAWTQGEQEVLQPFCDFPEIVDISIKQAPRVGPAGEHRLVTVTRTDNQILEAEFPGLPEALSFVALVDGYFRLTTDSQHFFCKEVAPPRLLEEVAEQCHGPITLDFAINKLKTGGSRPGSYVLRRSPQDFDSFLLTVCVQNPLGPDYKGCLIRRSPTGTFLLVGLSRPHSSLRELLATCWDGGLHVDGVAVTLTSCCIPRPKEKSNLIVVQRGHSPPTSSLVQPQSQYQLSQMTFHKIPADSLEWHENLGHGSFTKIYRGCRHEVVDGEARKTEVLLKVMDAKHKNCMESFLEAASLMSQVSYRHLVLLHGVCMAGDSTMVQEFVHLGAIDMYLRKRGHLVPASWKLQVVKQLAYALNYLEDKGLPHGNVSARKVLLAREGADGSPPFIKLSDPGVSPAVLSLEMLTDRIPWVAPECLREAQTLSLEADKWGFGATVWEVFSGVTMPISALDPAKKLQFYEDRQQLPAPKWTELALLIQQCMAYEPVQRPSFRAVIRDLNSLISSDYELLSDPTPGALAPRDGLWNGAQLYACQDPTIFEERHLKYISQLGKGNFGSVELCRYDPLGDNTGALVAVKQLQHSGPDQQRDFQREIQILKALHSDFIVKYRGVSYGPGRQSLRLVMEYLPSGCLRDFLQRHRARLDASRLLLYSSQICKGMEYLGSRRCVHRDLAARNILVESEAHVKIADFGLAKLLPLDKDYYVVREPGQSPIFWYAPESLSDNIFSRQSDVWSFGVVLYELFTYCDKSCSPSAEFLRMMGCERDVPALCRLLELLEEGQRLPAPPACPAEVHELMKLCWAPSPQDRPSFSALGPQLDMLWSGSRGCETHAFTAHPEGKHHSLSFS

For `OC12CC3CC(C1)C(NC[C@H]1CC[C@H](c4nnn5cnc6[nH]ccc6c45)CC1)C(C3)C2` (stereo partly drawn) [compound 303, (1S,3R,4r,5S,7S)-4-({[trans-4-(7H-pyrrolo[3,2-e][1,2,3]triazolo[1,5-c]pyrimidin-1-yl)cyclohexyl]methyl}amino)adamantan-1-ol], the IC50 is greater than 1 µM on Tyk2, 0.057 µM on JAK1, 0.35 µM against JAK2 (ATP 100 μM) and greater than 1 µM on JAK3 (ATP 100 μM).

Regarding `N#CCC(=O)NC[C@H]1CC[C@H](c2nnn3cnc4[nH]ccc4c23)CC1` [compound 372, N-{[trans-4-(7H-Pyrrolo[3,2-e][1,2,3]triazolo[1,5-c]pyrimidin-1-yl)cyclohexyl]methyl}-2-cyanoacetamide], the IC50 stood at 0.41 µM at Tyk2, 0.0041 µM against JAK1, 0.016 µM on JAK2 (ATP 100 μM) and 0.23 µM against JAK3 (ATP 100 μM).

Take `c1ccc(CCNC[C@H]2CC[C@H](c3nnn4cnc5[nH]ccc5c34)CC2)cc1` [compound 174, N-{[trans-4-(7H-pyrrolo[3,2-e][1,2,3]triazolo[1,5-c]pyrimidin-1-yl)cyclohexyl]methyl}-2-phenylethanamine]: the IC50 against Tyk2 (Table^a 154) came to 0.099 µM; on JAK1 (Table^a 154) it was 0.0057 µM; at JAK2 (ATP 100 μM, Table^a 154), 0.072 µM; against JAK3 (ATP 100 μM, Table^a 154) it was 0.61 µM.

Turning to `N#CCc1ccc(NC[C@H]2CC[C@H](c3nnn4cnc5[nH]ccc5c34)CC2)cc1` [compound 264, 2-[4-({[trans-4-(7H-pyrrolo[3,2-e][1,2,3]triazolo[1,5-c]pyrimidin-1-yl)cyclohexyl]methyl}amino)phenyl]acetonitrile], the IC50 was greater than 1 µM against Tyk2, 0.011 µM against JAK1, 0.032 µM at JAK2 (ATP 100 μM) and greater than 1 µM against JAK3 (ATP 100 μM).

As to `N#CC1CCN(C[C@H]2CC[C@H](c3nnn4cnc5[nH]ccc5c34)CC2)CC1` [compound 89], the IC50 is 0.61 µM against Tyk2 (Table^a 154); 0.025 µM on JAK1 (Table^a 154); 0.2 µM at JAK2 (ATP 100 μM, Table^a 154); greater than 1 µM against JAK3 (ATP 100 μM, Table^a 154).

With `Cc1ccc(CN(C[C@H]2CC[C@H](c3nnn4cnc5[nH]ccc5c34)CC2)C(=O)CC#N)o1` [compound 410, N-{[trans-4-(7H-pyrrolo[3,2-e][1,2,3]triazolo[1,5-c]pyrimidin-1-yl)cyclohexyl]methyl}-2-cyano-N-[(5-methylfuran-2-yl)methyl]acetamide], the IC50 amounted to 0.58 µM against Tyk2, 0.022 µM on JAK1, 0.04 µM against JAK2 (ATP 100 μM) and 0.32 µM on JAK3 (ATP 100 μM).

On to `FC(F)(Br)CN[C@H]1CC[C@H](c2nnn3cnc4[nH]ccc4c23)CC1` [382b, trans-N-(2-bromo-2,2-difluoroethyl)-4-(7H-pyrrolo[3,2-e][1,2,3]triazolo[1,5-c]pyrimidin-1-yl)cyclohexanamine], for which the IC50 on Tyk2 worked out at 0.013 µM; at JAK1 it was 0.00031 µM; at JAK2, 0.0028 µM; at JAK3, 0.07 µM.

As for `O=C1NCCN1CCNC[C@H]1CC[C@H](c2nnn3cnc4[nH]ccc4c23)CC1` [compound 191, 1-[2-({[trans-4-(7H-pyrrolo[3,2-e][1,2,3]triazolo[1,5-c]pyrimidin-1-yl)cyclohexyl]methyl}amino)ethyl]imidazolidin-2-one], the IC50 against Tyk2 (Table^a 154) came out at 0.18 µM; on JAK1 (Table^a 154) it was 0.01 µM; on JAK2 (ATP 100 μM, Table^a 154), 0.084 µM; against JAK3 (ATP 100 μM, Table^a 154) it was 0.92 µM.

As to `N#Cc1ccc(N2CCC(c3nnn4cnc5[nH]ccc5c34)CC2)cc1` [compound 376, 4-[4-(7H-Pyrrolo[3,2-e][1,2,3]triazolo[1,5-c]pyrimidin-1-yl)piperidin-1-yl]benzonitrile], the IC50 was greater than 1 µM against Tyk2, 0.019 µM on JAK1, 0.19 µM against JAK2 (ATP 100 μM) and greater than 1 µM on JAK3 (ATP 100 μM).

Take `c1csc(CN2CCC(c3nnn4cnc5[nH]ccc5c34)CC2)n1` [compound 48]: the IC50 on Tyk2 (Table^a 154) came to 0.46 µM; against JAK1 (Table^a 154) it was 0.022 µM; on JAK2 (ATP 100 μM, Table^a 154) it was 0.054 µM; against JAK3 (ATP 100 μM, Table^a 154) it was 0.44 µM.

As to `FC1(F)Oc2cccc(CN3CCC(c4nnn5cnc6[nH]ccc6c45)CC3)c2O1` [compound 229, 1-{1-[(2,2-difluorobenzo[d][1,3]dioxol-4-yl)methyl]piperidin-4-yl}-7H-pyrrolo[3,2-e][1,2,3]triazolo[1,5-c]pyrimidine], the IC50 against Tyk2 was greater than 1 µM; against JAK1, 0.039 µM; against JAK2 (ATP 100 μM), 0.087 µM; on JAK3 (ATP 100 μM), greater than 1 µM.

As for `FC(F)(Br)CN[C@H]1CC[C@@H](c2nnn3cnc4[nH]ccc4c23)CC1` [382a, cis-N-(2-bromo-2,2-difluoroethyl)-4-(7H-pyrrolo[3,2-e][1,2,3]triazolo[1,5-c]pyrimidin-1-yl)cyclohexanamine], the IC50 against Tyk2 is 0.76 µM; at JAK1 it was 0.015 µM; on JAK2 it was 0.063 µM; at JAK3, 0.75 µM.

Take `N#CCC(=O)N(CC(F)(F)F)C[C@H]1CC[C@H](c2nnn3cnc4[nH]ccc4c23)CC1` [compound 407, N-{[trans-4-(7H-Pyrrolo[3,2-e][1,2,3]triazolo[1,5-c]pyrimidin-1-yl)cyclohexyl]methyl}-2-cyano-N-(2,2,2-trifluoroethyl)acetamide]: the IC50 at Tyk2 is 0.13 µM; at JAK1 it was 0.0034 µM; against JAK2 (ATP 100 μM) it was 0.0073 µM; at JAK3 (ATP 100 μM), 0.31 µM.

`N#C[C@H]1CCN(C(=O)[C@H]2CC[C@H](c3nnn4cnc5[nH]ccc5c34)CC2)C1` [compound 357, (S)-1-[trans-4-(7H-pyrrolo[3,2-e][1,2,3]triazolo[1,5-c]pyrimidin-1-yl)cyclohexanecarbonyl]pyrrolidine-3-carbonitrile]: the IC50 was 0.87 µM against Tyk2, 0.067 µM at JAK1, 0.33 µM on JAK2 (ATP 100 μM) and greater than 1 µM against JAK3 (ATP 100 μM).

Turning to `N#C[C@H]1CC[C@H](c2nnn3cnc4[nH]ccc4c23)CC1` [compound 430, trans-4-(7H-Pyrrolo[3,2-e][1,2,3]triazolo[1,5-c]pyrimidin-1-yl)cyclohexanecarbonitrile], the 50% inhibitory concentration (IC50) was 0.41 µM at Tyk2, 0.0086 µM on JAK1, 0.049 µM against JAK2 (ATP 100 μM) and greater than 1 µM at JAK3 (ATP 100 μM).

Regarding `O=C(CC(F)(F)F)NC[C@H]1CC[C@H](c2nnn3cnc4[nH]ccc4c23)CC1` [compound 373, N-{[trans-4-(7H-Pyrrolo[3,2-e][1,2,3]triazolo[1,5-c]pyrimidin-1-yl)cyclohexyl]methyl}-3,3,3-trifluoropropanamide], the IC50 worked out at 0.53 µM at Tyk2, 0.0015 µM against JAK1, 0.011 µM on JAK2 (ATP 100 μM) and 0.035 µM at JAK3 (ATP 100 μM).

Regarding `O=S(=O)(C[C@H]1CC[C@H](c2nnn3cnc4[nH]ccc4c23)CC1)NC1CC1` [compound 417, 1-[trans-4-(7H-Pyrrolo[3,2-e][1,2,3]triazolo[1,5-c]pyrimidin-1-yl)cyclohexyl]-N-cyclopropylmethanesulfonamide], the IC50 at Tyk2 came out at 0.42 µM; on JAK1 it was 0.0078 µM; against JAK2 (ATP 100 μM), 0.026 µM; at JAK3 (ATP 100 μM), 0.38 µM.

Consider `CC(C)(C)NC[C@H]1CC[C@H](c2nnn3cnc4[nH]ccc4c23)CC1` [compound 332, N-{[trans-4-(7H-pyrrolo[3,2-e][1,2,3]triazolo[1,5-c]pyrimidin-1-yl)cyclohexyl]methyl}-2-methylpropan-2-amine], for which the IC50 on Tyk2 was 0.49 µM; against JAK1, 0.012 µM; against JAK2 (ATP 100 μM), 0.045 µM; at JAK3 (ATP 100 μM) it was greater than 1 µM.
